Data on 15 compounds can be found in EP2197879B1, “C7-SUBSTITUTED CAMPTOTHECIN ANALOGS” (priority 2007, dated 2009).

The subject of assay [1] is A2780/WT (wild-type) cells. Put plainly: Sulforhodamine B (SRB) cytotoxicity assay in A2780/WT cells. Type of assay: cell-based. The protocol: (§1) Each of the testing conditions used in this study in both A2780/WT (wild-type) and A2780/DX5 cells were repeated in five to fifteen experiments that were performed on separate days. Each experiment consisted of one microtiter plate with at least eight individual assays of a given drug treatment condition on the plate. The sulforhodamine B (SRB) assay was used to assess cytotoxicity and absorbance at 570 nm (A570) in order to calculate the percentage of cell control (or percent cell survival) for the various treatment conditions in the plate wells.
(§2) Roswell Park Memorial Institute (RPMI 1640) medium, fetal bovine serum (FBS), and L-glutamine were purchased from Gibco BRL. Drugs were dissolved in sterile dimethylsulfoxide (DMSO), from American Type Culture Collection (ATCC) for stock solutions (2.5 to 5.0 mM). Subsequent dilutions were made using cell culture medium (prior to adding the drug to cells). SRB was purchased from Sigma and dissolved in 1.0 percent acetic acid. Trichloroacetic acid was purchased from VWR International.
(§3) Cells were manipulated in a Class IIA/B3 Biological Safety Cabinet (Forma Scientific) and maintained at 37°C in a humidified atmosphere containing 5% CO2 in a water-jacketed cell culture incubator (Forma Scientific). Cells were counted using a Coulter-Z1 counter (Beckman-Coulter). Following drug treatment, plates were washed using a Biomek 2000 station (Beckman) and, following exposure to SRB dye, plates were washed using an automated plate washer (Model EL404, Bio-Tek Instruments). Percentage of control was correlated to A570 values and determined using a Model EL800 plate reader (Bio-Tek Instruments).
(§4) Population doubling times for the two cell lines used in this study encompassed a total of five cell doublings corresponding to approximately 5 days for A2780/WT and A2780/DX5 cells. A2780/WT and A2780/DX5 cells were cultured in RPMI 1640 medium supplemented with 10% fetal bovine serum and 1 mM of L-glutamine. Both cell lines were maintained as monolayered cultures in T-25 or T-75 flasks and then seeded to microtiter plate wells for experiments described herein. Prior to SRB assays, cell viability was monitored by evaluation of microtiter plate wells. Dead cells detach and float while living cells remain attached to the bottom of the cell well.
(§5) The sulforhodamine B (SRB) cytotoxicity assay (see, Skehan P, et al., New colorimetric cytotoxicity assay for anticancer-drug screening. J. Natl. Cancer Inst. 82:1107-1112 (1990)) was used to determine the cytotoxic effects of BNP1350, SN-38, topotecan, 9-NH2-CPT, and 9-NO2-CPT on cell growth in vitro. Briefly, after the medium was aspirated from individual plate wells, trichloroacetic acid (100 µL of 10.0% solution) was added to each well, and the plates were incubated at 4°C for at least 1 hour. The plates were washed five-times with water using an automated microplate washer (Model EL 404, Bio-Tek Instruments), SRB solution (100 µL of 0.4 grams SRB dissolved in 100 mL 1.0 percent acetic acid) was added, and plates remained at room temperature for 15 minutes. The plates were then washed five-times using acetic acid (1.0%), air dried, and bound dye was solubilized in Tris base (150 µL, 10 mM). Plates were agitated (gently) for 5 minutes and the absorbance values of the SRB dye-protein adduct at a 570 nm wavelength (A570) were determined using an automated microtiter plate reader equipped with an A570 filter (Model EL800, BioTek Instruments). Table VII. Summary of Cytotoxicity Experiments in A2780/WT and DX5 Cells
For orientation: Sulforhodamine B stains cellular protein and so reports cell mass.

The next assay has as its system A2780/DX5 cells. Put plainly: Sulforhodamine B (SRB) cytotoxicity assay in A2780/DX5 cells. Type of assay: cell-based. Conditions: for IC50 Ratio: A2780/DX5 versus A2780/WT. How it is done:
as §1, §2, §3, §4, §5

[2] abbreviates: Homo sapiens, SRB assay, A2780/WT cells, read-out: A2780/ WT (IC50).
Where [3] appears, read: Homo sapiens, A2780, read-out: A2780/ DX5 (IC50).
Where [4] appears, read: Homo sapiens, A2780, read-out: A2780/ WT (IC50).
[5] abbreviates: Homo sapiens, SRB assay, A2780/DX5 cells, read-out: A2780/ DX5 (IC50).

pIC50: −log10 of the molar value. Read-outs that look alike come from different tables or passages of the source.

For the compound `CC[C@@]1(O)C(=O)OCc2c1cc1n(c2=O)Cc2c-1nc1ccccc1c2CC[Si](C)(C)CN1CCCC1` [Compound 32, (4S)-11-[2-(dimethyl-pyrrolidin-1-ylmethyl-silanyl)-ethyl]-4-ethyl-4-hydroxy-1,12-dihydro-4H-2-oxa-6,12a-diaza-dibenzo[b,h]fluorene-3,13-dione], the pIC50 is 7.33 in assay [1] (setting [2]) and 6.50 in the assay with A2780/DX5 cells (setting [3]). Also, the “IC50 Ratio” value in the assay on A2780/DX5 cells stood at 6.9.

Turning to `CC[C@@]1(O)C(=O)OCc2c1cc1n(c2=O)Cc2c-1nc1ccccc1c2CC[Si](C)(C)CSc1nccn1C` [Compound 33, (4S)-11-{2-[dimethyl-(1-methyl-1H-imidazol-2-ylsulfanylmethyl)-silanyl]-ethyl}-4-ethyl-4-hydroxy-1,12-dihydro-4H-2-oxa-6,12a-diaza-dibenzo[b,h]fluorene-3,13-dione], the pIC50 is 8.01 in assay [1] (setting [4]) and 7.24 with A2780/DX5 cells (setting [3]). For the same compound, the “IC50 Ratio” value in the assay on A2780/DX5 cells amounted to 6.0.

As for `CC[C@@]1(O)C(=O)OCc2c1cc1n(c2=O)Cc2c-1nc1ccccc1c2CC[Si](C)(C)CSC1=NCCS1` [Compound 34, (4S)-11-{2-[(4,5-dihydro-thiazol-2-ylsulfanylmethyl)-dimethylsilanyl]-ethyl}-4-ethyl-4-hydroxy-1,12-dihydro-4H-2-oxa-6,12a-diaza-dibenzo[b,h]fluorene-3,13-dione], the results for the pIC50 (in assay [1] (setting [4]); with A2780/DX5 cells (setting [5])) were 7.69 and 7.26, respectively. Further, in the assay with A2780/DX5 cells, the “IC50 Ratio” value stood at 2.7.

As for `CC[C@@]1(O)C(=O)OCc2c1cc1n(c2=O)Cc2c-1nc1ccccc1c2CC[Si](C)(C)CSCCO` [Compound 35, (4S)-4-ethyl-4-hydroxy-11-{2-[(2-hydroxy-ethylsulfanylmethyl)-dimethyl-silanyl]-ethyl}-1,12-dihydro-4H-2-oxa-6,12a-diaza-dibenzo[b,h]fluorene-3,13-dione], the pIC50 in assay [1] (setting [2]) was 8.09; in the assay on A2780/DX5 cells (setting [5]), 7.67. Further, the “IC50 Ratio” value in the assay on A2780/DX5 cells is 2.6.

For the compound `CC[C@@]1(O)C(=O)OCc2c1cc1n(c2=O)Cc2c-1nc1ccccc1c2CC[Si](C)(C)CNS(=O)(=O)c1ccc(Cl)cc1` [Compound 37, (4S)-4-chloro-N-({[2-(4-ethyl-4-hydroxy-3,13-dioxo-3,4,12,13-tetrahydro-1H-2-oxa-6,12a-diaza-dibenzo[b,h]fluoren-11-yl)-ethyl]-dimethylsilanyl} -methyl)-benzenesulfonamide], the pIC50 in assay [1] (setting [4]) is 6.68; with A2780/DX5 cells (setting [3]), 6.07. For the same compound, the “IC50 Ratio” value in the assay with A2780/DX5 cells is 4.08.

Regarding `CC[C@@]1(O)C(=O)OCc2c1cc1n(c2=O)Cc2c-1nc1ccccc1c2CC[Si](C)(C)CNC(=O)Nc1ccccc1` [Compound 41, (4S)-1-({[2-(4-ethyl-4-hydroxy-3,13-dioxo-3,4,12,13-tetrahydro-1H-2-oxa-6,12a-diaza-dibenzo[b,h]fluoren-11-yl)-ethyl]-dimethylsilanyl}-methyl)-3-phenylurea], the pIC50 was 7.63 in assay [1] (setting [4]) and 6.59 in the assay with A2780/DX5 cells (setting [3]). Further, the “IC50 Ratio” value in the assay on A2780/DX5 cells is on record as 11.2.

For the compound `CCN(CC)C(=O)NC[Si](C)(C)CCc1c2c(nc3ccccc13)-c1cc3c(c(=O)n1C2)COC(=O)[C@]3(O)CC` [Compound 43, (4S)-1,1-diethyl-3-({[2-(4-ethyl-4-hydroxy-3,13-dioxo-3,4,12,13-tetrahydro-1H-2-oxa-6,12a-diaza-dibenzo[b,h]fluoren-11-yl)-ethyl]-dimethylsilanyl} -methyl)-urea], the values for the pIC50 (in assay [1] (setting [4]); in the assay on A2780/DX5 cells (setting [3])) were 7.16 and 6.53, respectively. Further, the “IC50 Ratio” value in the assay with A2780/DX5 cells was 4.28.

Take `CC[C@@]1(O)C(=O)OCc2c1cc1n(c2=O)Cc2c-1nc1ccccc1c2CC[Si](C)(C)CNC(=O)N(C)C` [Compound 45, (4S)-3-({[2-(4-ethyl-4-hydroxy-3, 13-dioxo-3,4, 12, 13-tetrahydro-1H-2-oxa-6,12a-diaza-dibenzo[b,h]fluoren-11-yl)-ethyl]-dimethylsilanyl}-methyl)-1,1-dimethyl-urea]: the figures for the pIC50 (in assay [1] (setting [2]); with A2780/DX5 cells (setting [5])) were 7.44 and 6.75, respectively. The “IC50 Ratio” value in the assay on A2780/DX5 cells stood at 4.9.

With `CC[C@@]1(O)C(=O)OCc2c1cc1n(c2=O)Cc2c-1nc1ccccc1c2CC[Si](C)(C)O` [Compound 46, (4S)-4-Ethyl-4-hydroxy-11-[2-(hydroxydimethylsilanyl)-ethyl]-1, 12-dihydro-4H-2-oxa-6,12a-diaza-dibenzo[b,h]fluorene-3,13-dione], the pIC50 was 8.00 in assay [1] (setting [2]) and 7.30 in the assay on A2780/DX5 cells (setting [5]). In the assay with A2780/DX5 cells, the “IC50 Ratio” value came to 5.0.

Turning to `CCC1(O)C(=O)OCc2c1cc1n(c2=O)Cc2c-1nc1ccccc1c2CC[Si](C)(C)CCC(=O)O` (centres unmarked) [Compound 47, 3-{[2-(4-Ethyl-4-hydroxy-3,13-dioxo-3 ,4, 12, 13-tetrahydro-1H-2-oxa-6, 12a-diaza-dibenzo[b,h]fluoren-11-yl)-ethyl]-dimethyl-silanyl}-propionic acid], the pIC50 in assay [1] (setting [2]) is 6.70; in the assay with A2780/DX5 cells (setting [5]), 6.20. Moreover, the “IC50 Ratio” value with A2780/DX5 cells is reported as 3.1.

On to `CCC1(O)C(=O)OCc2c1cc1n(c2=O)Cc2c-1nc1ccccc1c2CC[Si](C)(C)CCC(=O)N(C)C` (centres unmarked) [Compound 48, 3-{[2-(4-Ethyl-4-hydroxy-3,13-dioxo-3,4,12,13-tetrahydro-1H-2-oxa-6,12a-diaza-dibenzo[b,h]fluoren-11-yl)-ethyl]-dimethyl-silanyl}-N,N-dimethyl-propionamide], for which the pIC50 was 7.37 in assay [1] (setting [2]) and 6.79 with A2780/DX5 cells (setting [5]). Besides, the “IC50 Ratio” value in the assay with A2780/DX5 cells was 3.9.

Take `CCC1(O)C(=O)OCc2c1cc1n(c2=O)Cc2c-1nc1ccccc1c2CC[Si](C)(C)CCC(=O)NC(CCC(=O)OCc1ccccc1)C(=O)OCc1ccccc1` (centres unmarked) [Compound 49, 2-(3-{[2-(4-Ethyl-4-hydroxy-3, 13-dioxo-3,4, 12, 13-tetrahydro-1H-2-oxa-6,12a-diaza-dibenzo[b,h]fluoren-11-yl)-ethyl]-dimethyl-silanyl}-propionylamino)-pentanedioic acid dibenzyl ester]: the pIC50 (in assay [1] (setting [2]); in the assay on A2780/DX5 cells (setting [5])) was under 5.70 each time.

As to `CCC1(O)C(=O)OCc2c1cc1n(c2=O)Cc2c-1nc1ccccc1c2CC[Si](C)(C)CCC(=O)NC(CCC(=O)O)C(=O)O` (centres unmarked) [Compound 50, 2-(3-{[2-(4-Ethyl-4-hydroxy-3, 13-dioxo-3,4, 12, 13-tetrahydro-1H-2-oxa-6, 12a-diaza-dibenzo[b,h]fluoren-11-yl)-ethyl]-dimethyl-silanyl}-propionylamino)-pentanedioic add], the pIC50 was 5.77 in assay [1] (SRB assay, A2780/WT cells, read-out: A2780/ WT (IC50)) and under 5.70 in the assay on A2780/DX5 cells (SRB assay, A2780/DX5 cells, read-out: A2780/ DX5 (IC50)). The “IC50 Ratio” value in the assay with A2780/DX5 cells turned out to be 1699.3.

As to `CC[C@@]1(O)C(=O)OCc2c1cc1n(c2=O)Cc2c-1nc1ccccc1c2CC[Si](C)(C)CCCOC(=O)c1ccccc1` [Compound 55, Benzoic acid 3-{[2-(4-ethyl-4-hydroxy-3,13-dioxo-3,4, 12, 13-tetrahydro-1H-2-oxa-6,12a-diaza-dibenzo[b,h]fluoren-11-yl)-ethyl]-dimethylsilanyl}-propyl ester], the pIC50 in assay [1] (setting [2]) is 7.62; in the assay on A2780/DX5 cells (setting [5]), 6.95. Moreover, the “IC50 Ratio” value in the assay on A2780/DX5 cells was 4.6.

As to `CC[C@@]1(O)C(=O)OCc2c1cc1n(c2=O)Cc2c-1nc1ccccc1c2CC[Si](C)(C)CCCOC(=O)c1ccco1` [Compound 57, Furan-2-carboxylic acid 3-{[2-(4-ethyl-4-hydroxy-3,13-dioxo-3,4, 12, 13-tetrahydro-1H-2-oxa-6,12a-diaza-dibenzo[b,h]fluoren-11-yl)-ethyl]-dimethyl-silanyl}-propyl ester], the pIC50 in assay [1] (setting [2]) was 7.91; in the assay on A2780/DX5 cells (setting [5]), 7.53. Besides, the “IC50 Ratio” value in the assay on A2780/DX5 cells is on record as 2.4.
